Laboratory results from patent US5447900A, “Thermosensitive recording material” (priority 1993, dated 1995).

Experiment: Acid dissociation constant (pKa) by titration with sodium hydroxide, pH meter, in water/methanol 1:1
Format: physicochemical
Procedure: In Table 1, the acid dissociation constant of a compound was measured by the following method:
A commercially available pH meter "HORIBA N-8F" (Trademark), made by Horiba Ltd., equipped with three composite electrodes, was calibrated by using the following two solutions:
Water/methanol solution (with a volume ratio of 1:1) containing 0.05 mol/l potassium hydrogenphthalate.
Water/methanol solution (with a volume ratio of 1:1) containing 0.01 mol/l tris(hydroxy)aminomethane and 0.01 mol/l tris(hydroxy)aminomethane hydrochloride.
Then, a solution A was prepared in such a manner that 0.4969 g of 4-(4'-phenoxybutoxy)phthalic acid (Compound No. 1 in Table 1) and 0.5844 g of sodium chloride,were dissolved in a mixed solvent consisting of 50 ml of water and 50 ml of methanol.
In addition, a 0.1068 mol/l sodium hydroxide aqueous solution was prepared by standardizing the solution with potassium hydrogen-phthalate. This solution was hereinafter referred to as a solution B.
The solution A was placed in a beaker and stirred with a stirrer. The solution B was added dropwise in an amount of 0.5 to 1.0 ml to the solution A, with stirring, through a buret. When the pH of the solution A reached a constant value, the pH was measured. The pH was further measured with further addition of the solution B to the solution A, so that a titration curve was obtained. This titration curve was fitted in a theoretical formula by using a computer program, so that an acid dissociation constant of the compound No. 1 was calculated.

[1] = comparative color developer, solvent not given
[2] = mixed solvent of water and methanol, volume ratio 1:1

**Q.** For CC(C)(c1ccc(O)cc1)c1ccc(O)cc1 [4,4'-isopropylidene diphenol], which “acid dissociation constant pKa1 (printed pKal)” value [1] is on record?
**A.** Its value is roughly 10.7.

**Q.** What about the “acid dissociation constant pKa2” value [1] of the same compound?
**A.** The value was 10.7.

**Q.** Which “acid dissociation constant pKa” value [1] does the source give for CC(C)Oc1ccc(S(=O)(=O)c2ccc(O)cc2)cc1 [4-isopropoxy-4'-hydroxydiphenylsulfone] here?
**A.** Its value is 8.27.

**Q.** With O=C(O)c1ccc(OCCCCOc2ccccc2)cc1C(=O)O [Compound No. 1, 4-(4'-phenoxybutoxy)phthalic acid] as the compound, how does the “Acid Dissociation Constant pKa1” value [2] read?
**A.** The value was 3.55.

**Q.** And the “acid dissociation constant pKa2” value [2]?
**A.** The value was 6.59.
